The target of one experiment is T1, CDK1:Cyclin-B (Homo sapiens, UniProt P06493).
T1 construct: purchased New England Biolabs 6020; host or cells: insect cells
Kind of experiment: CDK1 Screening Assay. The experiment is classed as biochemical. The following applies: Table 1; read-out: CDK1 IC50. The procedure: (§1) 70 μL of the kinase reaction mixture was dispensed into the well of a streptavidin coated FlashPlate™ (Cat. # SMP103, NEN, Boston, Mass.). Then 1 μL of test compound stock in 100% DMSO was added to the wells resulting in a final concentration of 1% DMSO in the reaction with a 100 μl final reaction volume. Next, CDK1:Cyclin-B protein was diluted in 50 mM Tris-HCl pH=8.0, 0.1% BSA at a concentration of 1 ng per μL and 30 μl (30 ng enzyme per test well) was added to each well to initiate the reaction. The reaction was incubated for one hour at 30° C. At the end of the 1-hour incubation, the reaction was terminated by aspirating the reaction mixture from the plate and washing the wells twice with PBS containing 100 mM EDTA. The histone-H1 biotinylated peptide substrate became immobilized on the Flashplate™ and the incorporation of ^33P-γ-ATP was measured by reading the plate on a scintillation counter. Inhibition of the enzymatic activity of CDK1 was measured by observing a reduced amount of ^33P-γ-ATP incorporated into the immobilized peptide.
Assays to test compound inhibition of other kinases were preformed using methods that measure the amount of phosphorylation of a biotinylated peptide substrate. Biotinylated peptide substrates were selected from the literature as appropriate for the enzyme being evaluated. […] Assay conditions vary slightly for each protein kinase, for example, insulin receptor kinase requires 10 mM MnCl2 for activity and Calmodulin-dependent protein kinase requires calmodulin and 10 mM CaCl2. These assay conditions are known in the art. The reaction mixture was dispensed into the wells of a streptavidin coated Flashplate and 1 μl drug stock in 100% DMSO was added to a 100 μl reaction volume resulting in a final concentration of 1% DMSO on the reaction. Enzyme was diluted in 50 mM Tris-HCl pH=8.0, 0.1% BSA and add to each well. The reaction was incubated for one hour at 30° C. in the presence of compound. After one hour the reaction mix was aspirated from the plate and the plate was washed with PBS containing 100 mM EDTA. The plate was read on a scintillation counter to determine ^33P-γ-ATP incorporated into the immobilized peptide. Test compounds were assayed in duplicate at 8 concentrations [100 uM, 10 uM, 1 uM, 100 nM, 10 nM, 1 nM, 100 pM, 10 pM]. A maximum and minimum signal for the assay was determined on each plate. The IC50 was calculated from the dose response curve of the percent inhibition of the maximum signal in the assay according to the formula [max signal—background/test compound signal—background (100)=% inhibition] by graphing the percent inhibition against the log concentration of test compound. Known inhibitor compounds appropriate for the kinase being assayed were also included on each plate. […]

For experiment [1], the target named is T2, VEGF-R (vascular endothelial growth factor receptor-2) (Rattus norvegicus, UniProt O08775).
T2 construct: polyhistidine (6xHIS) (N)
T2 sequence (O08775 786-1343): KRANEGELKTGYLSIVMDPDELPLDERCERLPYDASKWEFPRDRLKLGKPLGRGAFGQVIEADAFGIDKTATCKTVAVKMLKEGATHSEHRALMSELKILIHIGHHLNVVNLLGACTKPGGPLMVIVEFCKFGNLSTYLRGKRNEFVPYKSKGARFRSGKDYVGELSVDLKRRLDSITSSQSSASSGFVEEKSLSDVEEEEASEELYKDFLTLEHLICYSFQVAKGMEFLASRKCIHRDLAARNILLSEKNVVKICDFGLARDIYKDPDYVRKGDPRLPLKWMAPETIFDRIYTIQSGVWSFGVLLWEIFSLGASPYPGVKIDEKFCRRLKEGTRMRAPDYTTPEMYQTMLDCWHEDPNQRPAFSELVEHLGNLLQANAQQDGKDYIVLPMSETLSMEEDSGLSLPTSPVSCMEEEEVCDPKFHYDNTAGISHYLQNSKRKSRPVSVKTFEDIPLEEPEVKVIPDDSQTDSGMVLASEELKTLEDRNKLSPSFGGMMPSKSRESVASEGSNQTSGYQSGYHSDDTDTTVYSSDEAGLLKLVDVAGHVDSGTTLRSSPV
Briefly: VEGF-R Screening Assay. The experiment is classed as biochemical. The following applies: Table 1; read-out: VEGF-R IC50. The procedure: as §1, with “a 100 μL final reaction” for “a 100 μl final reaction”, “volume. Next, soluble rat tyrosine kinase containing an N-terminal 6×HIS tag was diluted” for “volume. Next, CDK1:Cyclin-B protein was diluted”, “concentration of 5 ng per” for “concentration of 1 ng per”, “and 30 μL (150 ng enzyme” for “and 30 μl (30 ng enzyme”, “EDTA. The PLC1 biotinylated peptide” for “EDTA. The histone-H1 biotinylated peptide”, “activity of the VEGF-R was measured” for “activity of CDK1 was measured”
Assays to test compound inhibition of other kinases were preformed using methods that measure the amount of phosphorylation of a biotinylated peptide substrate. Biotinylated peptide substrates were selected from the literature as appropriate for the enzyme being evaluated. […] Assay conditions vary slightly for each protein kinase, for example, insulin receptor kinase requires 10 mM MnCl2 for activity and Calmodulin-dependent protein kinase requires calmodulin and 10 mM CaCl2. These assay conditions are known in the art. The reaction mixture was dispensed into the wells of a streptavidin coated Flashplate and 1 μl drug stock in 100% DMSO was added to a 100 μl reaction volume resulting in a final concentration of 1% DMSO on the reaction. Enzyme was diluted in 50 mM Tris-HCl pH=8.0, 0.1% BSA and add to each well. The reaction was incubated for one hour at 30° C. in the presence of compound. After one hour the reaction mix was aspirated from the plate and the plate was washed with PBS containing 100 mM EDTA. The plate was read on a scintillation counter to determine ^33P-γ-ATP incorporated into the immobilized peptide. Test compounds were assayed in duplicate at 8 concentrations [100 uM, 10 uM, 1 uM, 100 nM, 10 nM, 1 nM, 100 pM, 10 pM]. A maximum and minimum signal for the assay was determined on each plate. The IC50 was calculated from the dose response curve of the percent inhibition of the maximum signal in the assay according to the formula [max signal—background/test compound signal—background (100)=% inhibition] by graphing the percent inhibition against the log concentration of test compound. Known inhibitor compounds appropriate for the kinase being assayed were also included on each plate.
CDK2 in complex with cyclin A is commercially available (Upstate Biotech, Lake Placid, N.Y.). The CDK4 complex was composed of a mouse CDK4 protein and a mouse Cyclin D1 protein (The mouse CDK4 protein was genetically fused to an N-terminal Flag-epitope tag and the mouse Cyclin D1 protein was fused with an N-terminal AU-1 epitope tag. The genes encoding these proteins were transferred to commercially available baculoviral vectors. The recombinant CDK4/D1 complex was then made by co-infecting commercially available insect cells with viruses carrying these two constructs). […] ERK-1 protein (Discontinued from Calbiochem). EGFR (epidermal growth factor receptor) is purified from human A431 cell membranes (Sigma, St. Louis, Mo., Cat.# E3641).

Bounds are passed on as bounds.

T1 sequence (P06493 whole entry): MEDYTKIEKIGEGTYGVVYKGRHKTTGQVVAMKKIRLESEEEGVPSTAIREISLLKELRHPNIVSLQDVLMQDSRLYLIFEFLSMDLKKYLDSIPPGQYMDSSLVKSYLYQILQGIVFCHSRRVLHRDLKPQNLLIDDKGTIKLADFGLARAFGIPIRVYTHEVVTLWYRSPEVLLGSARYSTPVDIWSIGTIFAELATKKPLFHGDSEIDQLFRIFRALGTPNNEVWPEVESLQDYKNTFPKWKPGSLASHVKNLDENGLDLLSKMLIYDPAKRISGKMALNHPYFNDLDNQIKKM
T1 sequence (P14635 whole entry partner): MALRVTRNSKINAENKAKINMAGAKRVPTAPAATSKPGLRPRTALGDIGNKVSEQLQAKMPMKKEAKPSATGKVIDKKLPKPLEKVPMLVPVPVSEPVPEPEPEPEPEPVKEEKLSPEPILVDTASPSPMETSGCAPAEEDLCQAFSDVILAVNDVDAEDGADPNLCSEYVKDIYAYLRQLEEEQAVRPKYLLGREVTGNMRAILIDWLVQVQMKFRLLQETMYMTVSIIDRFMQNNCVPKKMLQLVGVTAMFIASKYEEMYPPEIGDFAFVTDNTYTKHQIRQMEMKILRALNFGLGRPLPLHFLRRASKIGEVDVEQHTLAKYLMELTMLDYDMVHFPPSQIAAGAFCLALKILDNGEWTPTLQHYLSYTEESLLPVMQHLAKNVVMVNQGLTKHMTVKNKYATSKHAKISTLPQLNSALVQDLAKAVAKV

For the molecule `Nc1nc(Nc2ccc(S(N)(=O)=O)cc2)nn1C(=O)c1c(F)ccc(F)c1F` [Cpd 3, 4-[[5-amino-1-(2,3,6-trifluorobenzoyl)-1H-1,2,4-triazol-3-yl]amino]-benzenesulfonamide], the IC50 (usually the midpoint of a concentration-inhibition curve) was determined as 8 nM on CDK1:Cyclin-B and 332 nM in experiment [1].

Turning to `Nc1nc(Nc2ccc(S(N)(=O)=O)cc2)nn1C(=O)c1ccccc1F` [Cpd 4, 4-[[5-amino-1-(2-fluorobenzoyl)-1H-1,2,4-triazol-3-yl]amino]-benzenesulfonamide], the results for the concentration for half-maximal inhibition (IC50) (on CDK1:Cyclin-B; in experiment [1]) were 22.3 nM and 387 nM, respectively.

For `Nc1nc(Nc2ccc(S(N)(=O)=O)cc2)nn1C(=O)c1ccc(F)cc1F` [Cpd 5, 4-[[5-amino-1-(2,4-difluorobenzoyl)-1H-1,2,4-triazol-3-yl]amino]-benzenesulfonamide], the IC50 on CDK1:Cyclin-B turned out to be 144 nM; in experiment [1], 521 nM.

In the case of `Nc1nc(Nc2ccc(S(N)(=O)=O)cc2)nn1C(=O)c1c(F)cccc1C(F)(F)F` [Cpd 6, 4-[[5-amino-1-[2-fluoro-6-(trifluoromethyl)benzoyl]-1H-1,2,4-triazol-3-yl]amino]-benzenesulfonamide], the figures for the IC50 (at CDK1:Cyclin-B; in experiment [1]) were 39.4 nM and 8140 nM, respectively.

As to `Nc1nc(Nc2ccc(S(N)(=O)=O)cc2)nn1C(=O)c1c(Cl)cccc1Cl` [Cpd 7, 4-[[5-amino-1-(2,6-dichlorobenzoyl)-1H-1,2,4-triazol-3-yl]amino]-benzenesulfonamide], the IC50 is 57 nM at CDK1:Cyclin-B and more than 10000 nM in experiment [1].

As to `Nc1nc(Nc2ccc(S(N)(=O)=O)cc2)nn1C(=O)c1c(Cl)cc(Cl)cc1Cl` [Cpd 8, 4-[[5-amino-1-(2,4,6-trichlorobenzoyl)-1H-1,2,4-triazol-3-yl]amino]-benzenesulfonamide], the 50% inhibitory concentration (IC50) is 136 nM at CDK1:Cyclin-B and more than 100000 nM in experiment [1].

`Nc1nc(Nc2ccc(S(N)(=O)=O)cc2)nn1C(=O)c1ccccc1[N+](=O)[O-]` [Cpd 9, 4-[[5-amino-1-(2-nitrobenzoyl)-1H-1,2,4-triazol-3-yl]amino]-benzenesulfonamide]: the concentration for half-maximal inhibition (IC50) on CDK1:Cyclin-B is 39 nM; in experiment [1] it was 1600 nM.

`COc1cccc(OC)c1C(=O)n1nc(Nc2ccc(S(N)(=O)=O)cc2)nc1N` [Cpd 10, 4-[[5-amino-1-(2,6-dimethoxybenzoyl)-1H-1,2,4-triazol-3-yl]amino]-benzenesulfonamide]: the results for the concentration for half-maximal inhibition (IC50) (at CDK1:Cyclin-B; in experiment [1]) were 252 nM and 491 nM, respectively.

`Cc1cc(C)c(C(=O)n2nc(Nc3ccc(S(N)(=O)=O)cc3)nc2N)c(C)c1` [Cpd 11, 4-[[5-amino-1-(2,4,6-trimethylbenzoyl)-1H-1,2,4-triazol-3-yl]amino]-benzenesulfonamide]: the IC50 on CDK1:Cyclin-B is 305 nM; in experiment [1], more than 100000 nM.

Take `Nc1nc(Nc2ccc(S(N)(=O)=O)cc2)nn1C(=O)c1ccccc1` [Cpd 12, 4-[(5-amino-1-benzoyl-1H-1,2,4-triazol-3-yl)amino]-benzenesulfonamide]: the 50% inhibitory concentration (IC50) at CDK1:Cyclin-B stood at 45.4 nM; in experiment [1], 84.1 nM.

For the molecule `Nc1nc(Nc2ccc(S(=O)(=O)N3CCCCC3)cc2)nn1C(=O)c1c(F)cccc1F` [Cpd 13, 1-(2,6-difluorobenzoyl)-N^3-[4-(1-piperidinylsulfonyl)phenyl]-1H-1,2,4-triazole-3,5-diamine], the results for the IC50 (on CDK1:Cyclin-B; in experiment [1]) were 535 nM and 532 nM, respectively.

As to `CCOc1ccsc1C(=O)n1nc(Nc2ccc(S(N)(=O)=O)cc2)nc1N` [Cpd 18, 4-[[5-amino-1-[(3-ethoxy-2-thienyl)carbonyl]-1H-1,2,4-triazol-3-yl]amino]-benzenesulfonamide], the IC50 is 67 nM at CDK1:Cyclin-B and 58 nM in experiment [1].

As for `CC(=O)Nc1ccsc1C(=O)n1nc(Nc2ccc(S(N)(=O)=O)cc2)nc1N` [Cpd 19, N-[2-[[5-amino-3-[[4-(aminosulfonyl)phenyl]amino]-1H-1,2,4-triazol-1-yl]carbonyl]-3-thienyl]-acetamide], the half-inhibitory concentration (IC50) at CDK1:Cyclin-B amounted to 33.9 nM; in experiment [1] it was 291 nM.

Take `Cc1ccc(C(=O)n2nc(Nc3ccc(S(N)(=O)=O)cc3)nc2N)s1` [Cpd 20, 4-[[5-amino-1-[(5-methyl-2-thienyl)carbonyl]-1H-1,2,4-triazol-3-yl]amino]-benzenesulfonamide]: the IC50 at CDK1:Cyclin-B is 4.4 nM; in experiment [1], 31 nM.

For the molecule `Nc1nc(Nc2ccc(S(N)(=O)=O)cc2)nn1C(=O)c1ccc(Br)s1` [Cpd 21, 4-[[5-amino-1-[(5-bromo-2-thienyl)carbonyl]-1H-1,2,4-triazol-3-yl]amino]-benzenesulfonamide], the IC50 on CDK1:Cyclin-B is 8.8 nM; in experiment [1], 23 nM.

On to `CC(=O)c1ccc(C(=O)n2nc(Nc3ccc(S(N)(=O)=O)cc3)nc2N)s1` [Cpd 22, 4-[[1-[(5-acetyl-2-thienyl)carbonyl]-5-amino-1H-1,2,4-triazol-3-yl]amino]-benzenesulfonamide], for which the IC50 on CDK1:Cyclin-B amounted to 31.8 nM; in experiment [1] it was 233 nM.

With `Cc1ccsc1C(=O)n1nc(Nc2ccc(S(=O)(=O)N3CCCCC3)cc2)nc1N` [Cpd 24, 1-[(3-methyl-2-thienyl)carbonyl]-N^3-[4-(1-piperidinylsulfonyl)phenyl]-1H-1,2,4-triazole-3,5-diamine], the concentration for half-maximal inhibition (IC50) on CDK1:Cyclin-B is 282 nM; in experiment [1] it was 67.4 nM.

Consider `Nc1nc(Nc2ccc(S(N)(=O)=O)cc2)nn1C(=O)c1ccco1` [Cpd 25, 4-[[5-amino-1-(2-furanylcarbonyl)-1H-1,2,4-triazol-3-yl]amino]-benzenesulfonamide], for which the IC50 on CDK1:Cyclin-B turned out to be 19.5 nM; in experiment [1], 64 nM.

With `Nc1nc(Nc2ccc(S(N)(=O)=O)cc2)nn1C(=O)c1ccno1` [Cpd 26, 4-[[5-amino-1-(5-isoxazolylcarbonyl)-1H-1,2,4-triazol-3-yl]amino]-benzenesulfonamide], the 50% inhibitory concentration (IC50) is 18400 nM on CDK1:Cyclin-B and approximately 100000 nM in experiment [1].

As to `Nc1nc(Nc2ccc(S(N)(=O)=O)cc2)nn1C(=O)c1ccccn1` [Cpd 27, 4-[[5-amino-1-(2-pyridinylcarbonyl)-1H-1,2,4-triazol-3-yl]amino]-benzenesulfonamide], the IC50 at CDK1:Cyclin-B was approximately 100000 nM; in experiment [1], more than 100000 nM.

The values are drawn from US6924302B2, “Substituted triazole diamine derivatives as kinase inhibitors” (Ortho McNeil Pharmaceutical, Inc., priority 2000, dated 2005).
